Source: patent US12599609B2, “Methods of treating fuchs endothelial corneal dystrophy after descemetorhexis” (KOWA COMPANY, LTD., priority 2021, dated 2026)
Where a name gives a salt, the structure may show the parent alone.

Test system: patients with FECD after descemetorhexis
Experiment: Phase 2 study of ripasudil eye drops after descemetorhexis in patients with Fuchs endothelial corneal dystrophy
Assay type: in vivo, human
Settings: BID and QID dosing of a 0.4% formulation, topical to the eye
Excerpt: As a condition of participating in the clinical study described in Example 3, each patient will undergo descemetorhexis of a study eye selected by the investigator for surgery. A digital photo of the study eye is taken immediately before and immediately after the descemetorhexis. The investigator will perform descemetorhexis to remove central confluent guttae, removing an area of Descemet membrane with a diameter of 4.5 to 5.5 mm. The longest diameter and the shortest diameter must be recorded. Detailed procedures for performing descemetorhexis are described in several literature references, including, for example, Macsai M S, Shiloach M. Cornea. 2019; 38:529-534, and Moloney G, Congote D G, Hirnschall N, et al. Cornea. 2020 Jul. 31. doi: 10.1097/ICO.0000000000002437. Online ahead of print.
Recommended post-descemetorhexis concomitant therapy consists of broad spectrum antibiotic (0.5% moxifloxacin hydrochloride) instilled at least once daily for 1 week and glucocorticoid (1% prednisolone acetate) instilled 3 times daily for the first 7 days, followed by once daily for the next 7 days, and terminated thereafter. The investigator may add antibiotic and glucocorticoid dosing after this 14 days as rescue therapy if the investigator judges it necessary. When more than 1 different eye drop is administered (including study drug), the study drug must be administered first, followed by any non-study eye drop (after at least 5 minutes have passed).
In this U.S. FDA approved study, the primary objective is to investigate the effect of K-321 dosed for 12 weeks on central ECD in patients with FECD after descemetorhexis. […]

C[C@H]1CNCCCN1S(=O)(=O)c1cccc2cncc(F)c12 [ripasudil hydrochloride, Ripasudil]
demonstrated particular benefit: improving best corrected visual acuity (BCVA) | improving central corneal endothelial corneal density (ECD) | reduction of corneal edema
